{"source": "ChEMBL document CHEMBL1146472", "about": "“Cytotoxic cyclotides from Viola tricolor” (J Nat Prod, 2004)", "key": {"RPMI-8226": {"test_system": "RPMI-8226", "test": "Cytotoxicity against human RPMI8226/S cells after 72 hrs by trypan blue exclusion method", "type": "functional, cell-based"}, "U-937/GTB": {"test_system": "U-937/GTB", "test": "Cytotoxicity against human U937/GTB cells after 72 hrs by trypan blue exclusion method", "type": "functional, cell-based"}}, "note": "Where a SMILES comes first, the peptide text is derived from it. Bridges are numbered along the chain shown (N, C = ends)."}
{"molecule": "CC[C@H](C)[C@@H]1NC(=O)[C@@H]2CCCN2C(=O)[C@H](CC(C)C)NC(=O)CNC(=O)[C@H](CC(N)=O)NC(=O)[C@H](CCCNC(=N)N)NC(=O)[C@H]([C@@H](C)O)NC(=O)[C@@H]2CSSC[C@@H]3NC(=O)[C@H]([C@@H](C)O)NC(=O)CNC(=O)CNC(=O)[C@H](C(C)C)NC(=O)[C@@H](NC(=O)[C@@H](NC(=O)[C@H](CCC(=O)O)NC(=O)CN)[C@@H](C)O)CSSC[C@H](NC(=O)[C@H](CO)NC(=O)[C@H](CSSC[C@@H](C(=O)O)NC1=O)NC(=O)CNC(=O)[C@@H]1CCCN1C(=O)[C@H]([C@@H](C)O)NC(=O)[C@H](CC(N)=O)NC3=O)C(=O)N[C@@H](CO)C(=O)N[C@@H](Cc1c[nH]c3ccccc13)C(=O)N1CCC[C@H]1C(=O)N[C@@H](C(C)C)C(=O)N2", "note": "(stereo in doubt; form 1)", "values": [{"measurement": "IC50", "setting": "RPMI-8226; Homo sapiens, RPMI8226/S, 72 h", "result": 4000, "unit": "nM"}, {"measurement": "IC50", "setting": "U-937/GTB; Homo sapiens, U-937/GTB, 72 h", "result": 4000, "unit": "nM"}]}
{"molecule": "CC[C@H](C)[C@@H]1NC(=O)[C@@H]2CCCN2C(=O)[C@H](CC(C)C)NC(=O)CNC(=O)[C@H](CC(N)=O)NC(=O)[C@H](CCCNC(=N)N)NC(=O)[C@H]([C@@H](C)O)NC(=O)[C@@H]2CSSC[C@@H]3NC(=O)[C@H]([C@@H](C)O)NC(=O)CNC(=O)CNC(=O)[C@H](C(C)C)NC(=O)[C@@H](NC(=O)[C@@H](NC(=O)[C@H](CCC(=O)O)NC(=O)CN)[C@@H](C)O)CSSC[C@H](NC(=O)[C@H](CO)NC(=O)[C@H](CSSC[C@@H](C(=O)O)NC1=O)NC(=O)CNC(=O)[C@@H]1CCCN1C(=O)[C@H]([C@@H](C)O)NC(=O)[C@H](CC(N)=O)NC3=O)C(=O)N[C@@H](CO)C(=O)N[C@@H](Cc1c[nH]c3ccccc13)C(=O)N1CCC[C@H]1C(=O)N[C@@H](C(C)C)C(=O)N2", "note": "(stereo in doubt; form 2)", "values": [{"measurement": "IC50", "setting": "RPMI-8226; rpmi8226/s", "result": 6000, "unit": "nM"}, {"measurement": "IC50", "setting": "U-937/GTB; u-937/gtb", "result": 7000, "unit": "nM"}]}
{"molecule": "COc1cccc2c1C(=O)c1c(O)c3c(c(O)c1C2=O)C[C@@](O)(C(=O)CO)C[C@@H]3O[C@H]1C[C@H](N)[C@H](O)[C@H](C)O1", "note": "[DOXORUBICIN]", "values": [{"measurement": "IC50", "setting": "RPMI-8226; Homo sapiens, RPMI8226/S, 72 h", "result": 100, "unit": "nM"}, {"measurement": "IC50", "setting": "U-937/GTB; Homo sapiens, U-937/GTB, 72 h", "result": 100, "unit": "nM"}]}
{"molecule": "CC[C@H](C)[C@@H]1NC(=O)[C@H](C)NC(=O)[C@H](CO)NC(=O)[C@H](CO)NC(=O)[C@H]([C@@H](C)CC)NC(=O)[C@@H]2CSSC[C@@H]3NC(=O)[C@H](C(C)C)NC(=O)[C@H](CCCCN)NC(=O)[C@H](CO)NC(=O)[C@H](CCCCN)NC(=O)[C@H](CSSC[C@H](NC(=O)[C@H](CO)NC(=O)[C@H](CCC(=O)O)NC(=O)CN)C(=O)N[C@@H](C(C)C)C(=O)N[C@@H](Cc4c[nH]c5ccccc45)C(=O)N[C@@H]([C@@H](C)CC)C(=O)N4CCC[C@H]4C(=O)N2)NC(=O)[C@H](CO)NC(=O)[C@H](CSSC[C@@H](C(=O)O)NC(=O)[C@@H]2CCCN2C(=O)[C@H]([C@@H](C)CC)NC(=O)CNC(=O)[C@H](CC(N)=O)NC(=O)[C@H](CCCNC(=N)N)NC(=O)[C@H](Cc2ccc(O)cc2)NC3=O)NC(=O)CNC1=O", "note": "[CYCLOVIOLACIN O2] (H-GESCVWIPCISSAIGCSCKSKVCYRNGIPC-OH; disulfide 4-18, 9-23, 16-30)", "values": [{"measurement": "IC50", "setting": "RPMI-8226; Homo sapiens, RPMI8226/S, 72 h", "result": 100, "unit": "nM"}, {"measurement": "IC50", "setting": "U-937/GTB; Homo sapiens, U-937/GTB, 72 h", "result": 300, "unit": "nM"}]}
{"molecule": "CC[C@H](C)[C@@H]1NC(=O)[C@H](C)NC(=O)[C@H](CO)NC(=O)[C@H]([C@@H](C)O)NC(=O)[C@H]([C@@H](C)CC)NC(=O)[C@@H]2CSSC[C@@H]3NC(=O)[C@H](C(C)C)NC(=O)[C@H](CCCCN)NC(=O)[C@H](CO)NC(=O)[C@H](CCCCN)NC(=O)[C@H](CSSC[C@H](NC(=O)[C@H](CO)NC(=O)[C@H](CCC(=O)O)NC(=O)CN)C(=O)N[C@@H](C(C)C)C(=O)N[C@@H](Cc4c[nH]c5ccccc45)C(=O)N[C@@H]([C@@H](C)CC)C(=O)N4CCC[C@H]4C(=O)N2)NC(=O)[C@H](CO)NC(=O)[C@H](CSSC[C@@H](C(=O)O)NC(=O)[C@@H]2CCCN2C(=O)[C@H]([C@@H](C)CC)NC(=O)CNC(=O)[C@H](CC(N)=O)NC(=O)[C@H](CCCNC(=N)N)NC(=O)[C@H](Cc2ccc(O)cc2)NC3=O)NC(=O)CNC1=O", "note": "[VITRI A] (H-GESCVWIPCITSAIGCSCKSKVCYRNGIPC-OH; disulfide 4-18, 9-23, 16-30)", "values": [{"measurement": "IC50", "setting": "RPMI-8226; Homo sapiens, RPMI8226/S, 72 h", "result": 1000, "unit": "nM"}, {"measurement": "IC50", "setting": "U-937/GTB; Homo sapiens, U-937/GTB, 72 h", "result": 600, "unit": "nM"}]}
{"molecule": "CC(C)C[C@@H]1NC(=O)CNC(=O)[C@H](CC(N)=O)NC(=O)[C@H](CCCNC(=N)N)NC(=O)[C@H]([C@@H](C)O)NC(=O)[C@@H]2CSSC[C@@H]3NC(=O)[C@H]([C@@H](C)O)NC(=O)CNC(=O)CNC(=O)[C@H](C(C)C)NC(=O)[C@@H](NC(=O)[C@@H](NC(=O)[C@H](CCC(=O)O)NC(=O)CN)[C@@H](C)O)CSSC[C@H](NC(=O)[C@H](CO)NC(=O)[C@H](CSSC[C@@H](C(=O)O)NC(=O)[C@H](C(C)C)NC(=O)[C@@H]4CCCN4C1=O)NC(=O)CNC(=O)[C@@H]1CCCN1C(=O)[C@H]([C@@H](C)O)NC(=O)[C@H](CC(N)=O)NC3=O)C(=O)N[C@@H](CO)C(=O)N[C@@H](Cc1c[nH]c3ccccc13)C(=O)N1CCC[C@H]1C(=O)N[C@@H](C(C)C)C(=O)N2", "values": [{"measurement": "IC50", "setting": "RPMI-8226; Homo sapiens, RPMI8226/S, 72 h", "result": 3000, "unit": "nM"}, {"measurement": "IC50", "setting": "U-937/GTB; Homo sapiens, U-937/GTB, 72 h", "result": 6000, "unit": "nM"}]}
